Values of other authors, collected in patent publication US11654154B2, “Process for preparing injectable Fosaprepitant Dimeglumine compositions having improved storage stability” (Navinta III Inc, priority 2019, dated 2023).
“Also recorded” adds a separate entry of the source.

Legend:
[1] = for Solubility in water / aqueous solution (in words): water or aqueous solution
[2] = system: chemotherapy induced nausea and vomiting (CINV); details: added to standard regimen of ondansetron and dexamethasone; highly emetogenic cisplatin-based chemotherapy

| Structure (SMILES) | Solubility in water ([1]; water) | Solubility in water / aqueous solution (in words) [1] | Protection against CINV [2] |
| --- | --- | --- | --- |
| C[C@@H](O[C@H]1OCCN(Cc2nc(O)n(P(=O)(O)O)n2)[C@H]1c1ccc(F)cc1)c1cc(C(F)(F)F)cc(C(F)(F)F)c1 [Fosaprepitant] | about 300 mg/mL | good solubility | – |
| C[C@@H](O[C@H]1OCCN(Cc2n[nH]c(=O)[nH]2)[C@H]1c1ccc(F)cc1)c1cc(C(F)(F)F)cc(C(F)(F)F)c1 [Aprepitant] | – | limited solubility; also recorded: minimal solubility | consistently superior protection |
